# Reference: US7786134B2, “Lipophilic anticancer drug compounds, compositions and related methods” (Sonus Pharmaceuticals, Inc., priority 2005, dated 2010)
# Read-outs that look alike come from different tables or passages of the source.
# Tests used:
# [1] = tested on: H460 (non-small cell lung); assay: In vitro cytotoxicity (GI50), Sulforhodamine B staining, H460; type: cell-based; conditions: H460 cells, 48 hours contact, read-out: Concentration that produce 50% cell growth inhibition (GI50) H460 (NSCLC)
# Method: (§1) The study was performed using a solution of the lipophilic anticancer drug compounds in DMSO (1 mM) diluted in the corresponding cell media. The cells were in contact with varying concentrations of the test article for a period of 48 hours. At the end of 48 hours, staining with Sulforhodamine B was performed to determine the number of viable cells and calculate the degree of cellular growth inhibition as compared to a control group.
# HCT-15 (colorectal) [2] = assay: In vitro cytotoxicity (GI50), Sulforhodamine B staining, HCT-15; type: cell-based; conditions: HCT-15 cells, 48 hours contact, read-out: Concentration that produce 50% cell growth inhibition (GI50) HCT-15 (COLON)
# Method: as §1
# HCT-116 (COLON) [3] = assay: In vitro cytotoxicity (GI50), Sulforhodamine B staining, HCT-116; type: cell-based; conditions: HCT-116 cells, 48 hours contact, read-out: Concentration that produce 50% cell growth inhibition (GI50) HCT-116 (COLON)
# Method: as §1
# SKOV-3 (ovarian) [4] = assay: In vitro cytotoxicity (GI50), Sulforhodamine B staining, SKOV-3; type: cell-based; conditions: SKOV-3 cells, 48 hours contact, read-out: Concentration that produce 50% cell growth inhibition (GI50) SKOV-3 (OVARIAN)
# Method: as §1
# [5] = tested on: H460 (non-small cell lung); conditions: H460 cells, National Cancer Institute (NCI) GI50 values; read-out: Concentration that produce 50% cell growth inhibition (GI50) H460 (NSCLC); cited from earlier work
# HCT-15 (colorectal) [6] = conditions: HCT-15 cells, National Cancer Institute (NCI) GI50 values; read-out: Concentration that produce 50% cell growth inhibition (GI50) HCT-15 (COLON); cited from earlier work
# HCT-116 (COLON) [7] = conditions: HCT-116 cells, National Cancer Institute (NCI) GI50 values; read-out: Concentration that produce 50% cell growth inhibition (GI50) HCT-116 (COLON); cited from earlier work
# SKOV-3 (ovarian) [8] = conditions: SKOV-3 cells, National Cancer Institute (NCI) GI50 values; read-out: Concentration that produce 50% cell growth inhibition (GI50) SKOV-3 (OVARIAN); cited from earlier work
Compound,GI50 [1] [nM],GI50 (HCT-15 (colorectal) [2]) [nM],GI50 (HCT-116 (COLON) [3]) [nM],GI50 (SKOV-3 (ovarian) [4]) [nM],GI50 [5] [nM],GI50 (HCT-15 (colorectal) [6]) [nM],GI50 (HCT-116 (COLON) [7]) [nM],GI50 (SKOV-3 (ovarian) [8]) [nM]
CCCCCCCCOC(=O)CCC(=O)Oc1ccc2nc3c(c(CC)c2c1)Cn1c-3cc2c(c1=O)COC(=O)C2(O)CC (centres unmarked) [10-(1-octyl succinate)-7-ethylcamptothecin],2460,661,9.75,3.46,–,–,–,–
"CCc1c2c(nc3ccc(OC(=O)CC4(CC(=O)OCc5ccccc5)CCCC4)cc13)-c1cc3c(c(=O)n1C2)COC(=O)[C@]3(O)CC [10-(benzyl 3,3-tetramethyleneglutarate)-7-ethylcamptothecin]",8.91,85.1,3.49,2.95,–,–,–,–
"CC[C@@]1(O)C(=O)OCc2c1cc1n(c2=O)Cc2cc3c(CN(C)C)c(O)ccc3nc2-1 [Topotecan, topotecan]",–,–,–,–,19.9,501,39.8,–
"CCc1c2c(nc3ccc(OC(=O)N4CCC(N5CCCCC5)CC4)cc13)-c1cc3c(c(=O)n1C2)COC(=O)[C@]3(O)CC [Irrinotecan, irinotecan]",–,–,–,–,5100,–,7900,–
CCCCOc1ccc(C(=O)Oc2ccc3nc4c(c(CC)c3c2)Cn2c-4cc3c(c2=O)COC(=O)C3(O)CC)cc1 (centres unmarked) [10-(4-butoxybenzoyloxy)-7-ethylcamptothecin],28.2,141,5.62,5.5,–,–,–,–
10-(N-n-butyl carbamate)-7-ethylcamptothecin,1.2,44.7,1.1,0.398,–,–,–,–
CCC1(OC(=O)CCC(=O)OCc2ccccc2)C(=O)OCc2c1cc1n(c2=O)Cc2cc3ccccc3nc2-1 (centres unmarked) [20-(benzyl succinate)camptothecin],380,1300,630,562,–,–,–,–
CCc1c2c(nc3ccc(OC(=O)CCC(=O)OCc4ccccc4)cc13)-c1cc3c(c(=O)n1C2)COC(=O)C3(O)CC (centres unmarked) [10-(benzyl succinate)-7-ethylcamptothecin],0.372,50.1,10.7,1.29,–,–,–,–
CCc1c2c(nc3ccc(OC(=O)CCC(=O)OCc4ccc(C)cc4)cc13)-c1cc3c(c(=O)n1C2)COC(=O)C3(O)CC (centres unmarked) [10-(4-methylbenzyl succinate)-7-ethylcamptothecin],5.37,75.4,2.29,6.16,–,–,–,–
CCCCCCCCOC(=O)CCC(=O)OC1(CC)C(=O)OCc2c1cc1n(c2=O)Cc2cc3ccccc3nc2-1 (centres unmarked) [20-(1-octyl succinate)camptothecin],165,354,766,2420,–,–,–,–
CC[C@@]1(O)C(=O)OCc2c1cc1n(c2=O)Cc2cc3ccccc3nc2-1 [Camptothecin],–,–,–,–,16,160,40,25
"CCc1c2c(nc3ccc(O)cc13)-c1cc3c(c(=O)n1C2)COC(=O)[C@]3(O)CC [7-ethyl-10hydroxycamptothecin, 7-ethyl-10-hydroxycamptothecin]",–,–,–,–,1.4,7.9,21,1
10-(n-butyl carbonoyloxy)-7-ethylcamptothecin,2.95,120,0.58,0.275,–,–,–,–
CC[C@@]1(O)C(=O)OCc2c1cc1n(c2=O)Cc2cc3cc(O)ccc3nc2-1 [10-hydroxycamptothecin],–,–,–,–,11,356,27,–
CCc1c2c(nc3ccc(OC(=O)NC(C)(C)C)cc13)-c1cc3c(c(=O)n1C2)COC(=O)C3(O)CC (centres unmarked) [10-(N-t-butyl carbamate)-7-ethylcamptothecin],5.75,158,15.1,1.29,–,–,–,–
"CCc1c2c(nc3ccc(OC(=O)CCC(=O)OCc4c(C)cc(C)cc4C)cc13)-c1cc3c(c(=O)n1C2)COC(=O)C3(O)CC (centres unmarked) [10-(2,4,6-trimethylbenzyl succinate)-7-ethylcamptothecin]",5.12,31.6,3.54,3.67,–,–,–,–
"CCc1c2c(nc3ccc(OC(=O)CCC(=O)OCc4c(C)c(C)c(C)c(C)c4C)cc13)-c1cc3c(c(=O)n1C2)COC(=O)C3(O)CC (centres unmarked) [10-(2,3,4,5,6-pentamethylbenzyl succinate)-7-ethylcamptothecin]",3.82,32.4,3.09,2.13,–,–,–,–
CCc1c2c(nc3ccc(OCc4ccccc4)cc13)-c1cc3c(c(=O)n1C2)COC(=O)[C@]3(O)CC [10-benzyloxy-7-ethylcamptothecin],0.32,5.66,4.52,15,–,–,–,–
